According to patent US12522575B2, “2-diarylmethyl-4-aminotetrahydropyran derivatives and related compounds as anticancer, antiinflammatory, antifibrotic and neuroprotective agents” (Atux Iskay LLC, priority 2021, dated 2026):
pIC50: −log10 of the molar value.

What was measured:
Assay type in all cases: cell-based
[1] = tested on: lung fibroblasts from healthy subjects; test: Fibrosis associated gene expression in lung fibroblasts; conditions: 1 μM, 24 hours, TGF-β (FIG. 1)
Description: Each dot represents cells from a different subject. Student t-tests or 2-way ANOVA were performed and a p-value […] was denoted as * when comparing to the vehicle treated groups or ** when comparing to the TGF-β vehicle groups.
Compounds of the present invention activate PP2A responses in fibroblasts from healthy subjects. Lung fibroblasts from 6 subjects were stimulated with 1 micromolar of example compounds for 24 hours.

[2] = tested on: phosphatase activity in ApoE transfected A172 glioblastoma cells; test: Cellular in vitro phosphatase activation assay (Malachite Green) in ApoE transfected A172 cells; conditions: 24 hours
Description: Cellular in vitro phosphatase activation assay was performed using the method of Theendakara et al, Molecular and Cellular Neuroscience, 83 (2017), pages 83-91 which is described below:
(§1) A172 glioblastoma cells were cultured in Dulbecco's modified Eagle's medium (DMEM) supplemented with 10% fetal bovine serum and 1% Penicillin-streptomycin. Incubation was performed at 37° C. and 5% CO2.
A172 cells were seeded at 5×10^5 cells/2.5 ml growth medium (without antibiotics) per well on 6-well tissue culture plates. Cells were incubated overnight to allow them to recover and reattach. […]
After 24 hrs, cells were washed twice with imidazole buffer and lysed using NP-40 Lysis buffer. […] The amount of phosphate release in the assay was determined by measuring absorbance at 620 nm using the Spectramax i3x plate reader.
The absorbance intensity data were analyzed using the computer software Graphpad Prism. The phosphate concentration for each sample was determined from the standard curve using phosphate standard concentrations. In order to compare samples, the first set (column A) were there was no transfection performed and no compound added, was designated a baseline; the absorbance measurement in this column was set as 100% phosphatase activity.

[3] = tested on: D425 medulloblastoma cells; test: D425 cell viability / proliferation (CellTiter-Glo); conditions: Medulloblastoma cell; 48 hours treatment, CellTiter-Glo; read-out: IC50 for D425 cell growth
Description: D425 medulloblastoma cells were purchased from SigmaAldrich. D425 meduloblastoma cells were cultured in improved Dulbecco's modified Eagle's medium (DMEM) Richter's modification supplemented with 20% fetal bovine serum and 1% Penicillin-streptomycin. Incubation was performed at 37° C. and 5% CO2.
D425 cells were seeded at 3000-3500 cells/90 ul growth medium per well on 96-well tissue culture plates. Cells were incubated overnight to allow them to recover. Next day cells were treated with tested compounds and incubated for 48 hours.
Cell Proliferation assays in triplicate were performed at each concentration. Compounds test range was 1-30 μM (0, 5, 10, 15, 20, 25, and 30). The compounds were dissolved in DMSO. A series of dilutions were made in 1% DMSO in growth medium so that the final concentration of DMSO is 0.1% in all of treatments.
After treatment, cells were allowed to equilibrate at room temperature for one hour. Cell proliferation was measured by Luminescence quantification using Promega CellTiter-Glo Luminescent Cell Viability Assay. To perform the assay, 90 ul of Celltiter-Glo substrate was added to each well, plates were shake for 2 minutes and allowed to equilibrate for 10 minutes at room temperature. Luminescence intensity was measured using the Spectramax i3x plate reader.
The Luminescence intensity data were analyzed using the computer software Graphpad Prism. In the absence of the compound, the luminescence intensity (Lt) in each data set was defined as 100% cell viability. The percent cell in the presence of each compound was calculated according to the following equation: % Cell=L/Lt, were L=the luminescence intensity in the presence of the compound.
The values of % cell versus a series of compound concentrations (0, 5, 10, 15, 20, 25, and 30 μM) were then plotted using Nonlinear regression analysis of Sigmoidal dose-response curve. IC50 value was determined by the concentration causing a half-maximal percent activity.

A172 glioblastoma cells = test: A172 cell viability / proliferation (CellTiter-Glo); conditions: Homo sapiens, A 172, 48-72 hours treatment, read-out: IC50 for A172 cell growth
Description: as §1
A172 cells were seeded at 3000-3500 cells/90 μL growth medium per well on 96-well tissue culture plates. Cells were incubated overnight to allow them to recover and reattach. Next day cells were treated with tested compounds and incubated for 48-72 hours.
Cell Proliferation assays in triplicate were performed at each concentration. Compounds test range was 1-30 µM (0, 5, 10, 15, 20, 25, and 30). The compounds were dissolved in DMSO. […]
After treatment, cells were allowed to equilibrate at room temperature for 1/2 to one hour. Cell proliferation was measured by Luminescence quantification using Promega CellTiter-Glo Luminescent Cell Viability Assay. […] Luminescence intensity was measured using the Spectramax i3× plate reader.
The Luminescence intensity data were analyzed using the computer software Graphpad Prism. In the absence of the compound, the luminescence intensity (Lt) in each data set was defined as 100% cell viability. The percent cell in the presence of each compound was calculated according to the following equation: % Cell=L/Lt, were L=the luminescence intensity in the presence of the compound. […]

ERK and JNK = ERK and JNK signaling in lung fibroblasts (immunoblot, densitometry); conditions: 1 μM, 24 hours, lung fibroblasts (FIGS. 2 and 3)
Description: Each dot represents cells from a different subject. Student t-tests or 2-way ANOVA were performed and a p-value […] was denoted as ** when comparing between phosphorylated and unphosphorylated groups.
Compounds of the present invention reactivate PP2A responses in fibroblasts from healthy and IPF subjects.

PP2A = PP2A responses in lung fibroblasts; conditions: 1 μM, 24 hours
Description: Each dot represents cells from a different subject. Student t-tests or 2-way ANOVA were performed and a p-value […] was denoted as * when comparing to the vehicle treated groups.
Each dot represents cells from a different subject. Student t-tests were performed and a p-value […] was denoted as * when comparing non-smoker (NS) to IPF vehicle groups or ** when comparing vehicle IPF to compound IPF groups. Left plot: cell source-healthy non-smoker; Middle plot: cell source—IPF; Right: cell source—IPF.
IPF fibroblasts were exposed to v or 1 micromolar of the ATUX compounds media for 24 hours and increase in PP2A activity is shown in right hand group. PP2A activity in vehicle treated fibroblasts from healthy nonsmokers is shown for comparison in the left hand group.

Compound: O=S(=O)(NC1CCOC(C2c3ccc(F)cc3CCc3cc(F)ccc32)C1)c1ccc(OC(F)(F)F)cc1 (stereo not shown) [Example 6, N-(2-(2,8-difluoro-10,11-dihydro-5H-dibenzo[a,d][7]annulen-5-yl)tetrahydro-2H-pyran-4-yl)-4-(trifluoromethoxy)benzenesulfonamide]
- pro-fibrotic gene expression [1]: suppression of pro-fibrotic gene expression
- % increase from ApoE transfected cell at 5 μM test compound concentration [2]: 6.8%
- pIC50 [3]: 5.24
- pIC50 (A172 glioblastoma cells): 5.00
- ERK and JNK signaling (ERK and JNK): reduced ERK and JNK signaling
- PP2A responses in lung fibroblasts from healthy subjects (PP2A; vs vehicle (FIG. 4)): reactivation of PP2A responses
- PP2A responses in lung fibroblasts from idiopathic pulmonary fibrosis (IPF) (PP2A; vs vehicle IPF (FIG. 5)): reactivation of PP2A responses
